Inhibition and IC50 data for 29 molecules are collected here from patent publication US8822449B2, “Substituted aminoindanes and analogs thereof, and the pharmaceutical use thereof” (Sanofi, priority 2008, dated 2014).

The target in this assay is T1, sodium-proton exchanger of subtype 3 (NHE3) (Homo sapiens, UniProt P48764).
T1 construct: expressed in transfected cells
T1 sequence (P48764 26-834): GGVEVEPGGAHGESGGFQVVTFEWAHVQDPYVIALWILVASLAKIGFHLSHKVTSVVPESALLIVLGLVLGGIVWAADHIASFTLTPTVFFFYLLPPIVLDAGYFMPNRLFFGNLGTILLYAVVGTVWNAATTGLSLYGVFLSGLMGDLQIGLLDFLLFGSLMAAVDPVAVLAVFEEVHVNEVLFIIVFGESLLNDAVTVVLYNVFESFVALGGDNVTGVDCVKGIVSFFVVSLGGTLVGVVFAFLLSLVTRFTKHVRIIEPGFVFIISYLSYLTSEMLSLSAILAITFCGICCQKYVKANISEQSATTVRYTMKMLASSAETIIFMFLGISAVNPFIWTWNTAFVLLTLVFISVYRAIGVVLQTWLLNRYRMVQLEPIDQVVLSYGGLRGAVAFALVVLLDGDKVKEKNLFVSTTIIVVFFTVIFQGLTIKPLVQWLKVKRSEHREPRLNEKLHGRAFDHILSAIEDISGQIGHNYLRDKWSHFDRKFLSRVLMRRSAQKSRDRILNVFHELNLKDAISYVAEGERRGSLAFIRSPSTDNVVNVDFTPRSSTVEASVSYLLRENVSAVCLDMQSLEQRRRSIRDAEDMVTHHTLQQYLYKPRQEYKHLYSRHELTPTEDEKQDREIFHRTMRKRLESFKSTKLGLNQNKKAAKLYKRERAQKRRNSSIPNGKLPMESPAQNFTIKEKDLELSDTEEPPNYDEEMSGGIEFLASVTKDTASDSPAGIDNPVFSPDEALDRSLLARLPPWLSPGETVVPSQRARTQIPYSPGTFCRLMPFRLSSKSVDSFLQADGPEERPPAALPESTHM
The assay can be described thus: Recovery of intracellular pH (pHi) after acidification in LAP1 cells stably expressing NHE3 (BCECF fluorescence, FLIPR). To be noted: LAP1 cells stably expressing NHE3, pH recovery after acidification, range 1 is % inhibition at 10 μM. Type of assay: cell-based.

The mark [1] stands for this setting: read-out: Activity range (inhibitory effect on NHE3).

Structures are written as SMILES. Like-named read-outs stand apart in the source and are kept apart here.

As for `CS(=O)(=O)c1ccc(O[C@H]2c3ccccc3C[C@@H]2N2CCC[C@@H](NC(=O)C(F)(F)F)C2)cc1` [Example 354, 2,2,2-trifluoro-N-{(R)-1-[trans-(1S,2S)-1-(4-methanesulfonylphenoxy)indan-2-yl]piperidin-3-yl}acetamide], the inhibition at 10 µM under setting [1] is 20 to 50%.

Take `N[C@H]1CCCN([C@H]2CCc3ccccc3[C@@H]2Oc2ccc(Br)cc2-c2cc[nH]n2)C1` (racemic) [Example 203, (S)-1-{rac-trans-(1,2)-1-[4-bromo-2-(1H-pyrazol-3-yl)phenoxy]-1,2,3,4-tetrahydronaphthalen-2-yl}piperidin-3-ylamine]: the inhibition at 10 µM under setting [1] fell in the range of 20 to 50%.

With `O=C1CCCN1c1cccc(O[C@H]2c3cc(Cl)cc(Cl)c3C[C@@H]2N2CC[C@@H](O)C2)c1` [Example 315, 1-{3-[(1S,2S)-4,6-dichloro-2-((R)-3-hydroxypyrrolidin-1-yl)indan-1-yloxy]phenyl}pyrrolidin-2-one], the IC50 under setting [1] lay in the range of 1000 to 10000 nM.

`CCc1nnc(C(C)C)n1-c1ccc(O[C@H]2c3cc(Cl)cc(Cl)c3C[C@@H]2N2CC[C@@H](O)C2)cc1` [Example 716, (R)-1-{trans-(1S,2S)-4,6-Dichloro-1-[4-(3-ethyl-5-isopropyl-[1,2,4]triazol-4-yl)-phenoxy]-indan-2-yl}-pyrrolidin-3-ol]: under setting [1], the IC50 was less than 1000 nM.

Turning to `CC(=O)Nc1cccc(O[C@H]2c3cc(Cl)ccc3C[C@@H]2N2CCNCC2)c1` (racemic) [Example 657, N-[3-(rac-trans-(1,2)-6-chloro-2-piperazin-1-ylindan-1-yloxy)phenyl]acetamide], the IC50 under setting [1] is 1000 to 10000 nM.

Consider `NS(=O)(=O)c1ccc(O[C@H]2c3ccccc3C[C@@H]2CN2CCCCC2)c(F)c1` (racemic) [Example 450, 3-fluoro-4-(2-piperidin-1-ylmethylindan-1-yloxy)benzenesulfonamide], for which, under setting [1], the inhibition at 10 µM lay within 20 to 50%.

On to `N[C@@H]1CCCN([C@@H]2Cc3ccccc3[C@H]2Oc2ccc3c(c2)OCO3)C1` (racemic) [Example 83, (R)-1-[rac-trans-(1,2)-1-(benzo[1,3]dioxol-5-yloxy)indan-2-yl]piperidin-3-ylamine], for which the IC50 under setting [1] lay in the range of 1000 to 10000 nM.

As to `COCCc1ccc(O[C@@H]2c3ccccc3C[C@H]2N2C[C@H]3CNC[C@H]3C2)cc1` (racemic) [Example 19, 2-{rac-trans-(1,2)-1-[4-(2-methoxyethyl)phenoxy]indan-2-yl}octahydropyrrolo[3,4-c]pyrrole], the IC50 under setting [1] was 1000 to 10000 nM.

As to `CS(=O)(=O)c1ccc(O[C@H]2c3cc(Cl)cc(Cl)c3C[C@@H]2N2CC3C[C@H]2CN3)cc1` [Example 209, (S)-2-[trans-(1S,2S)-4,6-dichloro-1-(4-methanesulfonylphenoxy)indan-2-yl]-2,5-diazabicyclo[2.2.1]heptane], the IC50 under setting [1] was less than 1000 nM.

Turning to `NS(=O)(=O)c1ccc(O[C@H]2c3cc(Cl)cc(Cl)c3C[C@@H]2N2CCC(F)(F)CC2)cc1` [Example 484, 4-[(1S,2S)-4,6-dichloro-2-(4,4-difluoropiperidin-1-yl)indan-1-yloxy]benzenesulfonamide], under setting [1], the inhibition at 10 µM was 20 to 50%.

Regarding `CCCC1(N)CCCN([C@H]2Cc3c(Cl)cc(Cl)cc3[C@@H]2Oc2ccc(S(C)(=O)=O)cc2)C1` (stereo partly drawn) [Example 299, 1-[trans-(1S,2S)-4,6-dichloro-1-(4-methanesulfonylphenoxy)indan-2-yl]-3-propylpiperidin-3-ylamine], under setting [1], the IC50 is less than 1000 nM.

On to `Cc1nncn1-c1ccc(O[C@H]2c3ccccc3C[C@@H]2N2CCCC2)cc1` (racemic) [Example 453, 3-methyl-4-[4-(rac-trans-(1,2)-2-pyrrolidin-1-ylindan-1-yloxy)phenyl]-4H-[1,2,4]triazole], for which the IC50 (Activity range (inhibitory effect on NHE3)) is less than 1000 nM.

As to `Cc1cc(O[C@H]2c3cc(F)cc(Cl)c3C[C@@H]2N2CCCC2)ccc1S(C)(=O)=O` (racemic) [Example 282, 1-[rac-trans-(1,2)-4-chloro-6-fluoro-1-(4-methanesulfonyl-3-methylphenoxy)indan-2-yl]pyrrolidine], under setting [1], the inhibition at 10 µM is 20 to 50%.

Take `COc1cc(Cl)ccc1O[C@H]1c2ccccc2CC[C@@H]1N1CCC[C@H](N)C1` (racemic) [Example 174, (S)-1-[rac-trans-(1,2)-1-(4-chloro-2-methoxyphenoxy)-1,2,3,4-tetrahydronaphthalen-2-yl]piperidin-3-ylamine]: the inhibition at 10 µM under setting [1] was in the range of 20 to 50%.

Turning to `CN1CCC2CN([C@H]3Cc4c(Cl)cc(Cl)cc4[C@@H]3Oc3ccc(S(C)(=O)=O)cc3)CC21` (single isomer, unassigned) [Example 582], under setting [1], the IC50 was 1000 to 10000 nM.

In the case of `O=S1(=O)CCCN1c1cccc(O[C@H]2c3ccccc3C[C@@H]2N2CCCC2)c1` (racemic) [Example 363, 2-[3-(rac-trans-(1,2)-2-pyrrolidin-1-ylindan-1-yloxy)phenyl]isothiazolidine 1,1-dioxide], the IC50 under setting [1] is 1000 to 10000 nM.

As for `Fc1ccc(O[C@H]2c3cc(Cl)cc(Cl)c3C[C@@H]2N2CCNCC2)c(-c2cc[nH]n2)c1` [Example 309, 1-{(1S,2S)-4,6-dichloro-1-[4-fluoro-2-(1H-pyrazol-3-yl)phenoxy]indan-2-yl}piperazine], the IC50 under setting [1] is less than 1000 nM.

Consider `NC1CCN([C@@H]2Cc3ccccc3[C@H]2Oc2ccc(Br)cc2-c2cc[nH]n2)CC1` (racemic) [Example 343, 1-{rac-trans-(1,2)-1-[4-bromo-2-(1H-pyrazol-3-yl)phenoxy]indan-2-yl}piperidin-4-ylamine], for which the IC50 under setting [1] fell in the range of 1000 to 10000 nM.

For `N#Cc1ccc(O[C@@H]2c3ccccc3C[C@H]2N2CCC[C@@H](N)C2)cc1F` (racemic) [Example 522, 4-[rac-trans-(1,2)-2-((R)-3-aminopiperidin-1-yl)indan-1-yloxy]-2-fluorobenzonitrile], the IC50 under setting [1] was 1000 to 10000 nM.

As to `Fc1ccc(O[C@H]2c3ccccc3CC[C@@H]2N2CCOCC2)c2ncccc12` (racemic) [Example 586, 5-fluoro-8-(rac-trans-(1,2)-2-morpholin-4-yl-1,2,3,4-tetrahydronaphthalen-1-yloxy)quinoline], the inhibition at 10 µM under setting [1] lay in the range of 20 to 50%.

Take `N[C@H]1CCCN([C@@H]2Cc3ccccc3[C@H]2Oc2cccc(N3CCNCC3)c2)C1` (racemic) [Example 169, (S)-1-[rac-trans-(1,2)-1-(3-piperazin-1-ylphenoxy)indan-2-yl]piperidin-3-ylamine]: the IC50 under setting [1] is less than 1000 nM.

As for `Cc1cc(O[C@@H]2c3cc(Cl)cc(F)c3C[C@H]2N2CCC[C@@H](N)C2)ccc1S(=O)(=O)C(F)(F)F` (racemic) [Example 92, (R)-1-[rac-trans-(1,2)-6-chloro-4-fluoro-1-(3-methyl-4-trifluoromethanesulfonylphenoxy)indan-2-yl]piperidin-3-ylamine], under setting [1], the inhibition at 10 µM fell in the range of 20 to 50%.

With `O=C1OCCN1c1cccc(O[C@H]2c3ccccc3C[C@@H]2N2CCCC2)c1` (racemic) [Example 409, 3-[3-(rac-trans-(1,2)-2-pyrrolidin-1-ylindan-1-yloxy)phenyl]oxazolidin-2-one], the IC50 under setting [1] is less than 1000 nM.

As for `CS(=O)(=O)c1ccc(O[C@H]2c3c(ccc(Cl)c3Cl)C[C@@H]2N2CCCNCC2)cc1` (racemic) [Example 288, 1-[rac-trans-(1,2)-6,7-dichloro-1-(4-methanesulfonylphenoxy)indan-2-yl]-[1,4]diazepane], the IC50 under setting [1] is less than 1000 nM.

Take `CC1(C)NC(=O)N(c2ccc(O[C@H]3c4cc(Cl)cc(Cl)c4C[C@@H]3N3CC[C@@H](O)C3)cc2)C1=O` [Example 425, 3-{4-[(1S,2S)-4,6-dichloro-2-((R)-3-hydroxypyrrolidin-1-yl)indan-1-yloxy]phenyl}-5,5-dimethylimidazolidine-2,4-dione]: the IC50 under setting [1] was less than 1000 nM.

In the case of `CCC(=O)c1cc(F)c(O[C@H]2c3ccccc3CC[C@@H]2N2CCC[C@H](N)C2)c(F)c1` (racemic) [Example 327, 1-{4-[rac-trans-(1,2)-2-((S)-3-aminopiperidin-1-yl)-1,2,3,4-tetrahydronaphthalen-1-yloxy]-3,5-difluorophenyl}propan-1-one], the inhibition at 10 µM under setting [1] was 20 to 50%.

Turning to `Cn1ccn(-c2cccc(O[C@H]3c4cc(Cl)cc(Cl)c4C[C@@H]3N3CCNCC3)c2)c1=O` (racemic) [Example 257, 1-[3-(rac-trans-(1,2)-4,6-dichloro-2-piperazin-1-ylindan-1-yloxy)phenyl]-3-methyl-1,3-dihydroimidazol-2-one], under setting [1], the IC50 is less than 1000 nM.

`N#Cc1ccc(-c2ccc(O[C@H]3c4ccccc4CC[C@@H]3N3CCC[C@@H](N)C3)cc2)cc1` (racemic) [Example 517, 4′-[rac-trans-(1,2)-2-((R)-3-aminopiperidin-1-yl)-1,2,3,4-tetrahydronaphthalen-1-yloxy]-biphenyl-4-carbonitrile]: the inhibition at 10 µM under setting [1] was in the range of 20 to 50%.

In the case of `CS(=O)(=O)c1ccc(O[C@H]2c3cc(Cl)cc(Cl)c3C[C@@H]2N2CCNC(C(F)(F)F)C2)cc1` (mixture of isomers) [Example 301, 1-[trans-(1S,2S)-4,6-dichloro-1-(4-methanesulfonylphenoxy)indan-2-yl]-3-trifluoromethylpiperazine], under setting [1], the inhibition at 10 µM was 20 to 50%.
